Read-outs that look alike come from different tables or passages of the source.
Legend:
[1] = system: serum protein; experiment: Free fraction by centrifugation; type: in vitro ADME; conditions: for fraction unbound at 60 min: centrifugation time 60 minutes
Procedure: Free fraction of digitoxin increased with centrifugation time from 18% at 10 minutes to 37% at 80 minutes (500 g) without reaching plateau levels.

[2] = system: serum protein; experiment: Serum protein binding by equilibrium dialysis; type: in vitro ADME, patients; conditions: human, read-out: digitoxin binding (protein binding), mean (converted)
Procedure: Equilibrium was obtained after 16 hours when titrated glycoside was added to serum. When added to the buffer phase, equilibrium was reached after 60 hours. Distribution of digitoxin, for example, in buffer-buffer control, was around 50% (49.4 to 50.6%). Absorption of ^3H-labeled glycoside to the dialysis membrane was 0.2% of the added ^3H-glycoside. Digitoxin protein binding was dependent on albumin content. […] No trace of protein was found when adding concentrated perchloric acid to the buffer phase. Counting efficacy was the same whether serum or buffer aliquots were added to the counting fluid. The counting error for buffer samples containing the smallest amount of radioactivity was 1% to 1.5%. Chamber equilibrium dialysis gave similar results. […] No significant change in digitoxin binding was found when the sera from 9 patients were dialyzed at 20° C. (mean, 96.7%) and at 37° C. (mean, 96.9%). Digoxin isolates will be used under similar conditions.

[3] = system: serum protein; experiment: In vitro drug studies: ability to induce changes in digitoxin serum protein binding; type: in vitro ADME; conditions: procainamide 5 mg/ml, phenytoin 50 mg/ml, heparin 5 IU/ml, rifampicillin 4.5 μg/ml
Procedure: The ability to induce changes in digitoxin serum protein binding was tested for the following drugs: procainamide (5 mg/ml), phenytoin (50 mg/ml), heparin (5 IU/ml), and rifampicillin (4.5 μg/ml). […] Identical procedures will be used for digoxin isolates.

[4] = system: guinea pig; experiment: Effect on PR interval (AV node conduction) and cardiac contractibility in anesthetized open-chest guinea pig; type: in vivo; conditions: pentobarbital anesthesia, IV infusion at 6 μg/kg/min continuously
Procedure: The guinea pig or rat is anesthetized with pentobarbital at 40 mg/kg IP, then connected to an EKG recorder. The animal is then placed on a small animal respirator. Aseptic surgical instruments are soaked in ethanol and then flamed. An incision is made in the chest wall to open the chest. A Walton Brody stain gauge arch is sutured to the right ventricle to measure contractile changes. The refractoriness of the AV node is determined by measuring the PR interval on the surface EKG. Graphs can be created from the data displaying the dose related change in the PR interval to the dose related contractile augmentation. Digoxin or chiral isolates are infused through the jugular vein at concentrations (from 0.1 μM and then to 10 μM) at a constant rate by infusion pump, to determine the differential effects on the AV node and cardiac contractibility. The infusions are continued to a 50% level augmentation in contractibility or the development of ventricular tachycardia. To maintain a consistent level of anesthesia, pentobarbital 20 mg/kg IP or 10 mg/kg IV for more immediate action at 30-minute intervals may be administered.
The effect of digoxin and one of the two chiral isomers was evaluated in the guinea pig. Guinea pigs were anesthetized with pentobarbital. […] An EKG was continuously recorded. Conduction through the AV node was determined by measuring the PR interval on the surface EKG. […]

[5] = system: gram-negative and gram-positive bacteria; conditions: against both gram-negative and gram-positive bacteria; cited from earlier work

## C[C@H]1O[C@@H](O[C@H]2[C@@H](O)C[C@H](O[C@H]3[C@@H](O)C[C@H](O[C@H]4CC[C@@]5(C)[C@H](CC[C@@H]6[C@@H]5CC[C@]5(C)[C@@H](C7=CC(=O)OC7)CC[C@]65O)C4)O[C@@H]3C)O[C@@H]2C)C[C@H](O)[C@@H]1O [digitoxin]
[1]; centrifugation time 10 minutes, 500 g
  fraction unbound at 10 min: 0.18
[1]; 135 g
  fraction unbound at 60 min: 0.059
[1]; 560 g
  fraction unbound at 60 min: 0.157
[1]; centrifugation time 80 minutes, 500 g
  fraction unbound at 80 min: 0.37
[2]; sera from 9 patients dialyzed at 20° C.
  fraction unbound: 0.033
[2]; sera from 9 patients dialyzed at 37° C.
  fraction unbound: 0.031

## rifampicillin
[3]
  changes in the serum protein binding of digitoxin: None of these induced significant changes

## heparin
[3]
  changes in the serum protein binding of digitoxin: None of these induced significant changes

## CC1O[C@@H](O[C@H]2C(O)C[C@H](O[C@H]3C(O)C[C@H](OC4CC[C@@]5(C)[C@H](CC[C@@H]6[C@@H]5C[C@@H](O)[C@]5(C)[C@@H](C7=CC(=O)OC7)CC[C@]65O)C4)OC3C)OC2C)CC(O)[C@@H]1O (stereo partly shown) [Digoxin]
[4]
  PR interval on the surface EKG (conduction through the AV node): progressive increase in PR interval
  cardiac contractibility as measured by the strain-gauge arch: increase in cardiac contractibility

## O=C1NC(=O)C(c2ccccc2)(c2ccccc2)N1 [phenytoin]
[3]
  changes in the serum protein binding of digitoxin: None of these induced significant changes

## CCN(CC)CCNC(=O)c1ccc(N)cc1 [procainamide]
[3]
  changes in the serum protein binding of digitoxin: None of these induced significant changes

## CC1COc2c(N3CCN(C)CC3)c(F)cc3c(=O)c(C(=O)O)cn1c23 (single isomer, unassigned; (-)) [(−)-Ofloxacin]
[5]
  activity relative to the racemate: 8-128 times
